From PubChem BioAssay (NCI)
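48-hour exposure; five concentrations; linearly interpolated endpoints. TGI marks complete inhibition of growth.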

Key:
Assay in all cases: NCI anticancer screen, dose series, 48 h
[1] = tested on: DLD-1 colon
[2] = tested on: DMS 114 small cell lung
[3] = tested on: DMS 273 small cell lung
[4] = tested on: HOP-18 NSCLC
[5] = tested on: LXFL 529 NSCLC
[6] = tested on: M19-MEL melanoma
[7] = tested on: RXF-631 renal
[8] = tested on: XF 498 CNS
[9] = tested on: SNB-78 CNS

Row | SMILES | TGI [1] [µM] | TGI [2] [µM] | TGI [3] [µM] | TGI [4] [µM] | TGI [5] [µM] | TGI [6] [µM] | TGI [7] [µM] | TGI [8] [µM] | TGI [9] [µM]
1 | Cc1ccc([N+](=O)[O-])cc1NC(=O)C(=O)Cc1nc2ccc(C(=O)c3ccccc3)cc2[nH]c1=O | > 100 | > 100 | > 100 | > 100 | > 100 | > 100 | > 100 | > 100 | 
2 | CCCCN(C)CC(C(C)=O)C(c1ccccc1)c1c(O)c2ccccc2oc1=O (stereo not given) | > 100 | > 100 | > 100 | > 100 | > 100 | > 100 |  | > 100 | > 100
3 | CC(=O)NNc1ncc(C(=O)/C=C/c2ccccc2C)s1 | > 100 | > 100 | > 100 | > 100 |  | > 100 | > 100 |  | > 100
4 | CC(C)(Oc1ccc2c(=O)cc(-c3ccc(Cl)cc3)oc2c1)C(=O)Nc1c(Cl)cccc1Cl | > 100 | > 100 | > 100 | > 100 | > 100 | > 100 |  | > 100 | > 100
5 | CO/S(=N/S(=O)(=O)c1ccccc1)c1ccccc1[N+](=O)[O-] (stereo not given) | > 100 |  | > 100 | > 100 | > 100 | > 100 | > 100 | > 100 | 
6 | COc1ccc2c(c1)c1ccc3c(c1n2C)C(=O)C=CC3=O | 20.9 | 47.4 | > 56.3 | 24.7 | 30.2 | > 58.9 | > 45.5 | 32.1 | 45.5
7 | O=CC1=CCCN(CCc2c[nH]c3ccccc23)C1 | 111 | 146 | 94.4 | 109 | 45.8 | 152 | 102 |  | 
8 | CSc1nc2nccnc2c(=O)[nH]1 | > 100 | > 100 | > 100 | > 100 | > 100 | > 100 |  | > 100 | 
9 | CC1=C(O)C(=O)C2C(=O)C1C(C)C2c1ccccc1 (stereo not given) | > 100 |  | > 100 |  | > 100 | > 100 |  | > 100 | > 100
10 | [N-]=[N+]=C1C(=O)C2CC3CC1CC2C3 (stereo not given) | > 100 | > 100 | > 100 | > 100 | > 100 | > 100 | > 100 |  | > 100
